Experimental findings from ChEMBL document CHEMBL5113482, “Discovery of fused benzimidazole-imidazole autophagic flux inhibitors for treatment of triple-negative breast cancer” (Eur J Med Chem, 2022) are described below.

One test concerns ASPC1. The test can be described thus: Antiproliferative activity against human ASPC cells assessed as cell growth inhibition measured after 48 hrs by MTT assay. As to conditions: ASPC1, 48 h. In kind it is functional, cell-based. For orientation: Tetrazolium assays rely on reduction of a dye to a coloured formazan, in cell work by metabolically active cells.
A further test has as its system U-251. Briefly: Antiproliferative activity against human U-251 cells assessed as cell growth inhibition measured after 48 hrs by MTT assay. The test is classed as functional, cell-based. As to conditions: U-251, 48 h.
For test [1], the system named is MDA-MB-468. Briefly: Induction of apoptosis in human MDA-MB-468 cells assessed as increase in Bim expression measured after 48 hrs by Western blot analysis. In kind it is functional, cell-based. As to conditions: dose 5-20 µM, DDE = dose-dependent effect.
The test system of another test is U-87 MG. The test can be described thus: Antiproliferative activity against human U87 cells assessed as cell growth inhibition measured after 48 hrs by MTT assay. In kind it is functional, cell-based, U-87MG ATCC.
The target in the next test is T1, Nibrin (Homo sapiens) (UniProt O60934).
T1 sequence (whole entry): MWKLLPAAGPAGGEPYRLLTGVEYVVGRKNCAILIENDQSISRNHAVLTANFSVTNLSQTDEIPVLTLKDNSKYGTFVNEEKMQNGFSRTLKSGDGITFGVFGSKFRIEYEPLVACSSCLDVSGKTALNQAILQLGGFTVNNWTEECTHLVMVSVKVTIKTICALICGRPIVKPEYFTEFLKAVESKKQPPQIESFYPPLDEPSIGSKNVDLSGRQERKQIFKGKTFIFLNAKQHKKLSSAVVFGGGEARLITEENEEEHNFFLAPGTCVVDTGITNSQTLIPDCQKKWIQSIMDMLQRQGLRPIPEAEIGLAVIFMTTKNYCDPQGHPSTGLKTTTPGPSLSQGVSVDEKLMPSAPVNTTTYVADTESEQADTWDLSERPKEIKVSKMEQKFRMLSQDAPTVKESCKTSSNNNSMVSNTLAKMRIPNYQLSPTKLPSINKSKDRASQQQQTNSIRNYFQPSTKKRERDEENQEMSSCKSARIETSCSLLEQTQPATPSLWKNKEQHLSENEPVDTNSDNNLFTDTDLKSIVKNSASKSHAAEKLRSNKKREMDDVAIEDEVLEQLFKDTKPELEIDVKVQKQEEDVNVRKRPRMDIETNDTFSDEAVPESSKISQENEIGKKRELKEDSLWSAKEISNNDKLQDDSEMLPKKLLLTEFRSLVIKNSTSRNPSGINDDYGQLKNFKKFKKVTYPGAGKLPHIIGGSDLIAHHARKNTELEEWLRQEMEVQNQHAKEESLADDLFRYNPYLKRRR
The test can be described thus: Activation of NBS1 phosphorylation in human MDA-MB-231 cells at 5 to 20 uM measured after 6 to 48 hrs by Western blot analysis. The test is classed as cell-based. As to conditions: filed as activator, dose 5-20 µM, time 6-48 hrs.

For another test, the system named is PC-3. The test can be described thus: Antiproliferative activity against human PC-3 cells assessed as cell growth inhibition measured after 48 hrs by MTT assay. The test is classed as functional, cell-based. Conditions: PC-3, 48 h.
The test system of test [2] is MDA-MB-231. The test can be described thus: Inhibition of autophagy in human MDA-MB-231 cells assessed as increase in LC3B-II expression measured after 48 hrs by immunofluorescence analysis. The test is classed as functional, cell-based. Conditions: dose 5-20 µM.
Test [3] concerns MDA-MB-231. Briefly: Induction of apoptosis in human MDA-MB-231 cells assessed as increase in Bak expression measured after 48 hrs by Western blot analysis. In kind it is functional, cell-based. As to conditions: dose 5-20 µM, DDE = dose-dependent effect. Background: Immunoblotting shows a protein as a band on a membrane.
Test [4] deals with MDA-MB-468. The test can be described thus: Antiproliferative activity against human MDA-MB-468 cells assessed as reduction in Ki67 expression measured after 48 hrs by immunofluorescence analysis. In kind it is functional, cell-based.
For test [5], the system named is MDA-MB-231. The test can be described thus: Inhibition of autophagic flux in human MDA-MB-231 cells assessed as reduction in RNF8 expression at 5 to 20 uM measured after 6 to 48 hrs by Western blot analysis. In kind it is functional, cell-based. Conditions: dose 5-20 µM, time 6-48 hrs.
A further test deals with HCT-116. Briefly: Antiproliferative activity against human HCT-116 cells assessed as cell growth inhibition measured after 48 hrs by MTT assay. Conditions: HCT-116, 48 h. In kind it is functional, cell-based.
The next test deals with LN-229. The test can be described thus: Antiproliferative activity against human LN-229 cells assessed as cell growth inhibition measured after 48 hrs by MTT assay. In kind it is functional, cell-based. Conditions: LN-229, 48 h.
The test system of test [6] is MDA-MB-468. The test can be described thus: Cell cycle arrest in human MDA-MB-468 cells assessed as increase in p21 expression measured after 48 hrs by Western blot analysis. The test is classed as functional, cell-based. As to conditions: dose 5-20 µM, DDE = dose-dependent effect.
Test [7] relates to MDA-MB-231. The test can be described thus: Antitumor activity against human MDA-MB-231 cells xenografted in ip dosed NOD/SCID mouse assessed as reduction in tumor growth administered at 3 days interval for 24 days and measured during compound dosing by caliper method. The test is classed as functional, organism-based. Conditions: dose 5-15 mg/kg, time 24.0 day, DDE = dose-dependent effect.

Test [8] has as its system MDA-MB-231. The test can be described thus: Inhibition of autophagic flux in human MDA-MB-231 cells assessed as reduction in polyubiquitinated H2A expression measured after 48 hrs by Western blot analysis. In kind it is functional, cell-based.
In test [9] the test system is MDA-MB-231. Briefly: Cell cycle arrest in human MDA-MB-231 cells assessed as reduction in cyclin A expression measured after 48 hrs by Western blot analysis. The test is classed as functional, cell-based. As to conditions: dose 5-20 µM, DDE = dose-dependent effect.

The structures appear in SMILES notation. Active and inactive are the calls of the source. The calls are words filed in the database; no cut-off is given here.

One may read the IC50 as the concentration needed to halve the response being measured. For the compound `O=C(NC1CCCCC1)c1[nH]cnc1-c1nc2ccccc2[nH]1`, the IC50 is 26.9 µM in the test on ASPC1; 12.9 µM in the test on U-251; 15.4 µM in the test on U-87 MG; 17.5 µM in the test with PC-3; 35.5 µM with HCT-116; 61.4 µM in the test with LN-229. Further, the Activity result in the test with MDA-MB-468 [1], with MDA-MB-231 [3], with MDA-MB-468 [6] and with MDA-MB-231 [9] was “Dde” throughout. The result on Nibrin (Homo sapiens) and in the test on MDA-MB-468 [4] was Active. The inhibition entry in the test on MDA-MB-231 [2], with MDA-MB-231 [5] and in the test on MDA-MB-231 [8] was “Active” each time. Further, the TGI result in the test on MDA-MB-231 [7] was “Dde”.
